Holding throughout (test): relative viability (nuclei count vs DMSO), 5 days (fraction); higher = more cells survive
Compound in the experiment “Selisistat + Tozasertib”: C1CC(C2=C(C1)C3=C(N2)C=CC(=C3)Cl)C(=O)N [Selisistat] + Cc1cc(Nc2cc(N3CCN(C)CC3)nc(Sc3ccc(NC(=O)C4CC4)cc3)n2)n[nH]1 [Tozasertib] (partner 0.1 µM)
In short, it runs like this: (§1)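 Lung cancer cell lines in 1536-well plates got either a single drug or a fixed anchor-drug dose together with five library-drug doses (not always all listed) in √10 steps, by pin tool, on the day after seeding. Nuclei were counted after 5 days, and relative viability is the treated-to-vehicle ratio of nuclei counts. Values are medians of duplicate plates.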

Compound in the experiment “Serdemetan + Bortezomib”: c1ccc2c(CCNc3ccc(Nc4ccncc4)cc3)c[nH]c2c1 [Serdemetan] + CC(C)C[C@H](NC(=O)[C@H](Cc1ccccc1)NC(=O)c1cnccn1)B(O)O [Bortezomib] (partner 0.002 µM)
In short, it runs like this:
as §1

Compound in the experiment “Serdemetan + Foretinib”: c1ccc2c(CCNc3ccc(Nc4ccncc4)cc3)c[nH]c2c1 [Serdemetan] + COc1cc2c(Oc3ccc(NC(=O)C4(C(=O)Nc5ccc(F)cc5)CC4)cc3F)ccnc2cc1OCCCN1CCOCC1 [Foretinib] (partner 0.25 µM)
In short, it runs like this: as §1

Compound in the experiment “Serdemetan + Linsitinib”: c1ccc2c(CCNc3ccc(Nc4ccncc4)cc3)c[nH]c2c1 [Serdemetan] + C[C@]1(O)C[C@@H](c2nc(-c3ccc4ccc(-c5ccccc5)nc4c3)c3c(N)nccn32)C1 [Linsitinib] (partner 1 µM)
The procedure, abridged:
as §1

In the case of ChaGo-K-1, the relative viability with Selisistat + Tozasertib (first compound 0.4 µM) is 0.213; with Selisistat + Tozasertib (first compound 1.265 µM), 0.214; in the experiment with Selisistat + Tozasertib (first compound 4 µM), 0.232; with Selisistat + Tozasertib (first compound 12.65 µM), 0.186; in the experiment with Selisistat + Tozasertib (first compound 40 µM) it was 0.245; in the experiment with Serdemetan + Bortezomib (first compound 0.1265 µM), 1.14. Further, the relative viability with Serdemetan + Bortezomib (first compound 0.4 µM) was found to be 0.697; in the experiment with Serdemetan + Bortezomib (first compound 1.265 µM), 0.775; with Serdemetan + Bortezomib (first compound 4 µM), 0.849; in the experiment with Serdemetan + Foretinib (first compound 0.04 µM), 0.9; in the experiment with Serdemetan + Foretinib (first compound 0.1265 µM) it was 0.703; with Serdemetan + Foretinib (first compound 0.4 µM), 0.566. The results for the relative viability in the experiment with Serdemetan + Foretinib (first compound 1.265 µM) and with Serdemetan + Foretinib (first compound 4 µM) were 0.335 and 0.296, respectively.

Turning to EBC-1, the relative viability stood at 0.482 in the experiment with Serdemetan + Bortezomib (first compound 0.04 µM); 0.575 with Serdemetan + Bortezomib (first compound 0.1265 µM); 0.588 in the experiment with Serdemetan + Bortezomib (first compound 0.4 µM); 0.563 with Serdemetan + Bortezomib (first compound 1.265 µM); 0.421 in the experiment with Serdemetan + Bortezomib (first compound 4 µM); 0.12 with Serdemetan + Foretinib (first compound 0.04 µM). Also, the relative viability in the experiment with Serdemetan + Foretinib (first compound 0.1265 µM) was found to be 0.123; in the experiment with Serdemetan + Foretinib (first compound 0.4 µM), 0.107; with Serdemetan + Foretinib (first compound 1.265 µM), 0.124; with Serdemetan + Foretinib (first compound 4 µM), 0.129; with Serdemetan + Linsitinib (first compound 0.04 µM), 0.807; with Serdemetan + Linsitinib (first compound 0.1265 µM), 0.904. For the same cell line, the figures for the relative viability with Serdemetan + Linsitinib (first compound 0.4 µM), in the experiment with Serdemetan + Linsitinib (first compound 1.265 µM) and with Serdemetan + Linsitinib (first compound 4 µM) were 0.952, 0.794 and 0.634, respectively.

For EKVX, the relative viability in the experiment with Selisistat + Tozasertib (first compound 0.4 µM) stood at 0.352; with Selisistat + Tozasertib (first compound 1.265 µM), 0.37; with Selisistat + Tozasertib (first compound 4 µM) it was 0.421; with Selisistat + Tozasertib (first compound 12.65 µM), 0.376; with Selisistat + Tozasertib (first compound 40 µM) it was 0.369; in the experiment with Serdemetan + Bortezomib (first compound 0.04 µM), 1.09. Moreover, the relative viability with Serdemetan + Bortezomib (first compound 0.1265 µM) amounted to 1; with Serdemetan + Bortezomib (first compound 0.4 µM) it was 0.857; in the experiment with Serdemetan + Bortezomib (first compound 1.265 µM), 0.911; in the experiment with Serdemetan + Bortezomib (first compound 4 µM), 1.25; with Serdemetan + Foretinib (first compound 0.04 µM) it was 1; with Serdemetan + Foretinib (first compound 0.1265 µM) it was 0.82. The relative viability with Serdemetan + Foretinib (first compound 0.4 µM) worked out at 0.424; with Serdemetan + Foretinib (first compound 4 µM) it was 0.858; in the experiment with Serdemetan + Linsitinib (first compound 0.04 µM), 0.997; with Serdemetan + Linsitinib (first compound 0.1265 µM) it was 0.971; with Serdemetan + Linsitinib (first compound 0.4 µM), 0.861; with Serdemetan + Linsitinib (first compound 1.265 µM), 0.968. The relative viability in the experiment with Serdemetan + Linsitinib (first compound 4 µM) stood at 0.639.

As to EMC-BAC-2, the relative viability is 0.302 with Selisistat + Tozasertib (first compound 0.4 µM); 0.286 in the experiment with Selisistat + Tozasertib (first compound 1.265 µM); 0.404 with Selisistat + Tozasertib (first compound 4 µM); 0.281 with Selisistat + Tozasertib (first compound 12.65 µM); 0.257 with Selisistat + Tozasertib (first compound 40 µM); 1.07 with Serdemetan + Bortezomib (first compound 0.04 µM). Moreover, the relative viability in the experiment with Serdemetan + Bortezomib (first compound 0.1265 µM) was 1.06; in the experiment with Serdemetan + Bortezomib (first compound 0.4 µM) it was 1.04; in the experiment with Serdemetan + Bortezomib (first compound 1.265 µM) it was 0.907; with Serdemetan + Bortezomib (first compound 4 µM) it was 0.939; with Serdemetan + Foretinib (first compound 0.04 µM), 0.969; with Serdemetan + Foretinib (first compound 0.1265 µM), 1.02. Also, the relative viability with Serdemetan + Foretinib (first compound 0.4 µM) amounted to 1.04; in the experiment with Serdemetan + Foretinib (first compound 1.265 µM), 0.809; in the experiment with Serdemetan + Foretinib (first compound 4 µM), 0.676; with Serdemetan + Linsitinib (first compound 0.04 µM) it was 0.802; with Serdemetan + Linsitinib (first compound 0.1265 µM) it was 0.753; with Serdemetan + Linsitinib (first compound 0.4 µM), 0.787. Moreover, the relative viability with Serdemetan + Linsitinib (first compound 1.265 µM) is 0.755; with Serdemetan + Linsitinib (first compound 4 µM), 0.613.

Take EPLC-272H: the relative viability with Selisistat + Tozasertib (first compound 0.4 µM) amounted to 0.265; in the experiment with Selisistat + Tozasertib (first compound 1.265 µM) it was 0.231; in the experiment with Selisistat + Tozasertib (first compound 12.65 µM), 0.34; in the experiment with Selisistat + Tozasertib (first compound 40 µM) it was 0.191; with Serdemetan + Bortezomib (first compound 0.04 µM), 0.967; with Serdemetan + Bortezomib (first compound 0.1265 µM), 0.931. The relative viability stood at 0.899 with Serdemetan + Bortezomib (first compound 0.4 µM); 0.723 with Serdemetan + Bortezomib (first compound 1.265 µM); 0.634 with Serdemetan + Bortezomib (first compound 4 µM); 0.881 with Serdemetan + Foretinib (first compound 0.04 µM); 0.684 in the experiment with Serdemetan + Foretinib (first compound 0.1265 µM); 0.305 in the experiment with Serdemetan + Foretinib (first compound 0.4 µM). Further, the relative viability worked out at 0.459 with Serdemetan + Foretinib (first compound 1.265 µM); 0.477 with Serdemetan + Foretinib (first compound 4 µM); 1.29 in the experiment with Serdemetan + Linsitinib (first compound 0.04 µM); 1.18 in the experiment with Serdemetan + Linsitinib (first compound 0.1265 µM); 1.07 with Serdemetan + Linsitinib (first compound 0.4 µM); 1 with Serdemetan + Linsitinib (first compound 1.265 µM). The relative viability with Serdemetan + Linsitinib (first compound 4 µM) amounted to 0.703.

Source of the values: the supplement of paper PMC10307832.
